Assay results taken from patent US20110152267A1, “Compositions and Methods for Treating Hyperproliferative Disorders” (Texas Tech University System, priority 2009, published 2011).

Key:
Format in all cases: cell-based, human
[1] = test system: HT-29 colon cancer cell line; assay: DIMSCAN cytotoxicity dose-response with fenretinide, with or without D-threo-PPMP (Examples A, FIGS. 4, 10, 15, 21-23); settings: +96 hrs; for C.I. of D-threo-PPMP with fenretinide+L-threo-sphinganine (three drug combination): D-threo-PPMP fixed 10 uM, at most doses; for C.I. (Combination Index) with fenretinide: at one or more doses
Experimental: Cytotoxicity Assay: Cytotoxicity in cell lines was determined using a fluorescence-based assay employing digital imaging microscopy (DIMSCAN)(after Fragala, et al, Mol Cancer Ther, 6:886-897, 2007). DIMSCAN quantitates viable cells which selectively accumulate fluorescein diacetate and is capable of measuring cytotoxicity over a 4-5 log dynamic range by quantifying total fluorescence per well (which is proportional to viable, clonogenic cells) after eliminating background fluorescence using digital thresholding and eosin Y quenching. Briefly, cell lines were seeded into 96-well plates in 100 µL of complete culture medium (10-20% serum) per well. Cells were incubated overnight in 2%, 5% or 20% oxygen (room air) prior to addition of drugs in […] volumes of complete medium to various final drug concentrations in replicates of 12 wells per concentration. In assays employing D-threo-PPMP, PPMP was employed at a fixed, minimally-toxic, final concentration of 10 μM in each well. Control wells received ethanol (final concentration=0.12%-0.20%) in complete medium equivalent to the maximum final ethanol concentration of drug-treated wells. Plates were incubated at various oxygen concentrations to simulate physiological hypoxia (i.e., 2% oxygen=typical solid tumor oxygen levels; 5%=bone marrow oxygen levels for leukemias; 20% room air=supraphysiological oxygen for comparison with typical laboratory culture conditions). Plates were assayed at 3-4 days after initiating drug exposure depending on the growth properties of each cell line, to allow for maximum cell death and outgrowth of surviving cells. To measure cytotoxicity, FDA (stock solution of 1 mg/ml in DMSO) was added, in 50 µL of complete medium per well, to a final concentration of 10 µg/ml. The plates were incubated for an additional 15-30 minutes at 37 C and then 30 µL of eosin Y (0.5% in normal saline) was added per well. Total fluorescence of each well was then measured using digital imaging microscopy.
FIGS. 1 to 26 illustrate the effect (Examples A1 through A26) of the claimed invention and were carried out using the procedures disclosed herein.

[2] = test system: COG-LL-317 acute lymphoblastic leukemia cell line; assay: DIMSCAN cytotoxicity, fenretinide + L-threo-sphinganines 3:1 (Example B20)
Experimental: (§1) Cytotoxicity Assay—Once again, cytotoxicity is determined using the DIMSCAN assay system (R. Proffitt et al., Cytometry 24, 204-213 (1996); T. Frgala et al., Mol Cancer Ther. 6:886-97, 2007). The system employs digital imaging microscopy to quantify viable cells, which selectively accumulate fluorescein diacetate to become brightly fluorescent. The system is capable of measuring cytotoxicity over a 4-5 log dynamic range by quenching the residual fluorescence of dead and dying cells with eosin Y and quantifying the total fluorescence of viable cells using digital thresholding. Measured fluorescence is directly proportionate to the number of viable cells. A comparison of the total fluorescence of a drug-treated cell population to the fluorescence of a similar number of untreated cells yields a survival fraction. In brief, 2000 to 10,000 cells/well (depending on size and growth rates) are replicate plated into 60 wells of a 96-well tissue culture plate in 0.1 mL of whole medium and allowed to attach overnight. Drug(s) are then added in 0.05 mL of whole medium to the final concentrations indicated. Drugs (fenretinide, and various chain length L-threo-sphinganines) were tested both as single agents and in a 3:1 ratio of fenretinide:sphinganine. C18-L-threo-sphinganine, or “safingol,” was also tested and results shown for reference. There are 12 wells treated per drug concentration. Twelve wells receive drug vehicle-only to the appropriate final concentration and serve as controls for the plate. Cells are incubated for 96 hours at 37° C. in ambient air with 5% CO2. Fluorescein diacetate is then added to each well in 0.05 mL media to a final concentration of 8 microgram/mL. Cells are incubated for a further 15 minutes at 37° C. and 0.03 mL of 0.5% eosin Y is added to each well. Total fluorescence of viable cells is then measured by digital imaging microscopy. Results were graphed as the ratio of the fluoresecence of drug-treated wells to non-drug treated control wells (i.e., Survival Fraction). All tests were performed at least twice. Representative results are shown.
(§2) The Combination Index (CI) is a term to describe mathematical modeling of the pharmacologic effects on cytotoxicity (cell death) of two drugs in combination based. Cytotoxic “synergy” is defined as a cell death affect which is greater than would be expected from a simple product of the single agent cytotoxicities alone (i.e. an “additive” effect). By Chou-Talalay analysis, a CI<0.9 on a Fraction Affected (“Fa”, i.e. fraction of cells killed) indicates synergy, with smaller numbers indicating greater synergy; a CI of 0.9-1.1 signifies an additive or near-additive effect; and a CI>1.1 means the drug combination is antagonistic.
(§3) Fenretinide and L-threo-sphinganines tested in human acute lymphoblastic leukemia (pediatric ALL, a blood cancer) cell lines, COG-LL-317 and MOLT-4.

[3] = test system: MOLT-4 acute lymphoblastic leukemia cell line; assay: as above
Experimental: as §1, §2, §3

[4] = test system: OE-33 esophageal adenocarcinoma cell line; assay: DIMSCAN cytotoxicity, fenretinide + L-threo-sphinganines 3:1 (Example B19)
Experimental: as §1, §2
(§4) Fenretinide and L-threo-sphinganines tested in human esophageal adenocarcinoma (esophagus cancer) cell lines, OE-19 and OE-33.

[5] = test system: OE-19 esophageal adenocarcinoma cell line; assay: as above
Experimental: as §1, §2, §4

[6] = test system: CHLA-266 primitive neuroectodermal tumor (PNET) cell line; assay: DIMSCAN cytotoxicity, fenretinide + L-threo-sphinganines 3:1 (Example B9); settings: 96 h
Experimental: as §1, §2
Fenretinide and L-threo-sphinganines tested in human primitive neuroectodermal tumor (PNET) (brain cancer) cell line, CHLA-266.

[7] = 4-HPR 3 μM + L-threo-sphinganine 1 μM
[8] = 4-HPR 6 μM + L-threo-sphinganine 2 μM
[9] = 4-HPR 9 μM + L-threo-sphinganine 3 μM
[10] = 4-HPR 12 μM + L-threo-sphinganine 4 μM
[11] = 4-HPR 1.5 μM + L-threo-sphinganine 0.5 μM

SMILES	CI [2, 7]	Fa [2, 7]	CI [2, 8]	Fa [2, 8]	Fa [2, 9]	Fa [2, 10]	CI [3, 7]	Fa [3, 7]	CI [3, 8]	Fa [3, 8]	CI [3, 9]	Fa [3, 9]	Fa [3, 10]	CI [4, 11]	Fa [4, 11]	CI [4, 7]	Fa [4, 7]	CI [4, 8]	Fa [4, 8]	CI [4, 9]	also measured
CCCCCCCCCCCCCCCCC[C@H](O)[C@@H](N)CO [C20, (2S,3S)-2-amino-1,3-icosanediol]	0.2	0.9999	0.3	1	1	1	0.9	0.878	0.8	0.996	0.8	0.999	1	1.9	0.255	1.9	0.445	0.8	0.883	0.2	C.I. of D-threo-PPMP with fenretinide+L-threo-sphinganine (three drug combination) ([1]; 2% oxygen): < 1; C.I. (Combination Index) with fenretinide ([1]; oxygen not stated): < 1; Fa [4, 9]: 0.993; CI [5, 11]: 3.2; Fa [5, 11]: 0.352; CI [5, 7]: 6.6; Fa [5, 7]: 0.438; CI [5, 8]: >>1; Fa [5, 8]: 0.708; CI [5, 9]: >>1; Fa [5, 9]: 0.771
CCCCCCCCCCCCCC[C@H](O)[C@@H](N)CO [C17, (2S,3S)-2-amino-1,3-heptadecanediol]	0.8	0.993	1.3	0.9993	0.9999	1	1.0	0.807	0.7	0.998	0.8	0.999	1	1.5	0.376	1.1	0.767	0.8	0.945	0.4	C.I. (Combination Index) with fenretinide ([1]; 2% oxygen): < 1; C.I. of D-threo-PPMP with fenretinide+L-threo-sphinganine (three drug combination) ([1]; 20% oxygen): < 1; CI [2, 9]: 0.5; CI (Combination Index) [6, 11]: 0.5; Fa (fraction affected) [6, 11]: 0.502; CI (Combination Index) [6, 7]: 0.5; Fa (fraction affected) [6, 7]: 0.913; CI (Combination Index) [6, 8]: 0.5; Fa (fraction affected) [6, 8]: 0.990; CI (Combination Index) [6, 9]: 0.7; Fa (fraction affected) [6, 9]: 0.989; Fa [4, 9]: 0.991; CI [5, 11]: 0.3; Fa [5, 11]: 0.314; CI [5, 7]: 0.3; Fa [5, 7]: 0.462; CI [5, 8]: 0.2; Fa [5, 8]: 0.689; CI [5, 9]: 0.2; Fa [5, 9]: 0.743
